Reference: paper PMC10819521 (Pharmaceutics, 2024)

Columns and labels:
[1] = target: T1, Human isolated cathepsin B (Homo sapiens, UniProt P07858); experiment: Cathepsin B assay (chromogenic substrate Z-Arg-Arg-pNA); format: biochemical; conditions: 50 µM inhibitor, 60 min; 100% = no inhibitor; n.i. = residual activity ≥ 95%; read-out: Percentage residual activity of human cathepsin B
T1 construct: Human isolated cathepsin B (Calbiochem) was assayed spectrophotometrically; purchased Calbiochem
Procedure: (§1) Cathepsin assays. Assays with human cathepsins B, S, L, and K were carried out as described previously. Stock solutions of substrates and inhibitors were prepared in DMSO. The final DMSO concentration was 2%. All test compounds were investigated in duplicate at a concentration of 50 µM to determine residual activities based on endpoints of substrate consumption after 60 min. Ki values were obtained in duplicate measurements with six different inhibitor concentrations, and 60-min-progress curves were analyzed by linear regression. IC50 values were obtained by non-linear regression using the equation vi = v0/(1 + ([I]/IC50), where vi is the product formation rate at different inhibitor concentrations, v0 is the uninhibited product formation rate, [I] is the inhibitor concentration, and IC50 is the half-maximal inhibitory concentration. IC50 values are transformed to Ki values using the Cheng-Prusoff equation.
(§2) Human isolated cathepsin B (Calbiochem) was assayed spectrophotometrically (Cary 50 Bio, Varian) at 405 nm and 37 °C. Assay buffer was 100 mM sodium phosphate buffer pH 6.0, 100 mM NaCl, 5 mM EDTA, 0.01% Brij 35. For activation, an enzyme stock solution was diluted with assay buffer containing 5 mM DTT and incubated for 30 min at 37 °C. The final concentration of the chromogenic substrate Z-Arg-Arg-pNA was 500 µM (0.45 × Km).
(§3) Cathepsins inhibition. Compounds 4a–l were then evaluated for their ability to inhibit Cat S. Besides Cat S, the set of assays included three related human cathepsins, B, L, and K, all members of the class of lysosomal cysteine proteases (see Table S1 in the Supporting Information). Following reported procedures, [39, 40, 41] percentage or residual activities were determined using chromogenic or fluorogenic peptide substrates, with endpoints measured after 60 min of substrate consumption. To determine Ki values, progress curves were followed over 60 min and analyzed by linear regression. Ki values were then obtained by non-linear regression.

[2] = system: voltage-gated calcium channels; experiment: Calcium channel blockade (FLIPR Calcium 6 indicator, SH-SY5Y cells); format: cell-based, human; conditions: compounds at 10 µM, KCl/CaCl2 stimulation, n.i. = no inhibition
Procedure: Calcium channel blockade. Evaluation of the calcium channel blockade of compounds 4a–l was performed using the FLIPR Calcium 6 indicator according to a previously established protocol. Briefly, human neuroblastoma cell line SH-SY5Y seeded out on 96-well plate were treated with fluorescent calcium indicator (FLIPR Calcium 6, Molecular Devices). Cells were incubated with indicator for 2 h at 37 °C, facilitating internalization of the indicator. Subsequently, cells were exposed to nimodipine (10 µM, used as reference inhibitor), DMSO (0.1%, used as vehicle control) or our compounds of interest (10 µM) for 10 min also at 37 °C. Following that, cell fluorescence was recorded using a microplate reader (λEx = 485 nm; λEm = 525 nm). Baseline fluorescence was recorded for 5 s. Afterwards, cells were stimulated by the addition of the solution of KCl and CaCl2 (90 and 5 mM, respectively) in order to induce the opening of voltage-gated calcium channels. An increase in fluorescence of calcium indicator after inducing calcium flux was recorded for another 30 s. Data were collected from three independent experiments, with eight technical replicates per experiment. Fluorescence intensity values were normalized to the baseline recorded before the induction of calcium flux. The percentage of inhibition was calculated as a reduction of normalized calcium flux in comparison with the DMSO vehicle control. Outliers were detected using the Grubbs test, and any outlying values were excluded from further analysis.
Calcium channel blockade. The Ca^2+ channel blocking capacity of compounds 4a–l and nimodipine, used as a standard at a concentration of 10 μM, was evaluated according to an established methodology.

[3] = Oxygen radical absorbance capacity assay (ORAC-FL); conditions: ORAC-FL method; mean ± SEM
Procedure: Oxygen radical absorbance capacity assay. The evaluation of the antioxidant activity of compounds 4a–l was carried out using the previously established ORAC-FL method, and detailed information is provided in the supporting information.
Antioxidant assay. The antioxidant assessment was conducted by evaluating the compounds 4a–l through the determination of oxygen radical absorbance capacity (ORAC) using the ORAC-Fluorescein (ORAC-FL) method […]
Oxygen radical absorbance capacity assay.
ORAC-FL method, using fluorescein as a fluorescent probe. Shortly, fluorescein and the antioxidants
2,2'-Azobis(amidinopropane)
(emission wavelength) every minute for 1 hour. […]

Nrf2-ARE = experiment: Nrf2 transcriptional activation, cell-based luciferase assay; conditions: CD = concentration required to double the specific activity of the luciferase reporter; 24 h; read-out: Nrf2 Induction Potencies CD
Procedure: Nrf2 transcriptional activation potencies. The assessment of the Nrf2 transcriptional activation potencies of compounds 4a–l was carried out using the previously described method, and detailed information is provided in the supporting information.
Nrf2 transcriptional activation potencies of compounds 4a–l. […] AREc32 cells were exposed to escalating concentrations of each compound (1, 5, 10, 25, 50, 100, 125, and 150 μM) for 24 h to reach the cytotoxic threshold, followed by measurements of luciferase activity. Melatonin was used as a positive control.
4e H Cl H n.i. 76 n.i. […]
Nrf2 transcriptional activation potencies. The stable NRF2/ARE luciferase reporter HEK293 cell line
(Promega) according to the manufacturer's instructions. To assess cellular viability, the stable

[4] = target: T2, Human isolated cathepsin L (Homo sapiens, UniProt P07711); experiment: Cathepsin L assay (chromogenic substrate Z-Phe-Arg-pNA); format: biochemical; conditions: 50 µM inhibitor, 60 min; 100% = no inhibitor; n.i. = residual activity ≥ 95%; read-out: Percentage residual activity of human cathepsin L
T2 construct: Human isolated cathepsin L (Enzo Life Sciences) was assayed spectrophotometrically; purchased Enzo Life Sciences
Procedure: as §1
as §2, with “L (Enzo Life Sciences)” for “B (Calbiochem)”, “The assay” for “Assay”, “EDTA, and” for “EDTA,”, “Z-Phe-Arg-pNA” for “Z-Arg-Arg-pNA”, “100” for “500”, “(5.88” for “(0.45”
as §3

[5] = target: T3, Human recombinant cathepsin K (Homo sapiens, UniProt P43235); experiment: Cathepsin K assay (substrate Z-Leu-Arg-AMC); format: biochemical; conditions: 50 µM inhibitor, 60 min; 100% = no inhibitor; n.i. = residual activity ≥ 95%; read-out: Percentage residual activity of human cathepsin K
T3 construct: purchased Enzo Life Sciences
T3 sequence (P43235 115-329): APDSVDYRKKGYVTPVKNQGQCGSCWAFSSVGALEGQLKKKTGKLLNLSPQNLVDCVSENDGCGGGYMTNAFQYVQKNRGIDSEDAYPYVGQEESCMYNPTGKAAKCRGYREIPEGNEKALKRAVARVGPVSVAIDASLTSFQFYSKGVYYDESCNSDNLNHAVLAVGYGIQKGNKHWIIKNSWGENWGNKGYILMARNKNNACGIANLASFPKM
Procedure: as §1
Human recombinant cathepsin K (Enzo Life Sciences) was assayed fluorometrically (FLUOstar Optima plate reader, BMG Labtech) with an emission wavelength of 360 nm and an absorption wavelength of 460 nm. The assay buffer was 100 mM sodium citrate pH 5.0, 100 mM NaCl, 1 mM EDTA, 0.01% CHAPS. For activation, an enzyme stock solution was diluted with assay buffer containing 5 mM DTT and incubated for 30 min at 37 °C. The final concentration of the chromogenic substrate Z-Leu-Arg-AMC was 40 µM (13.33 × Km).
as §3

[6] = target: T4, Human recombinant cathepsin S (Homo sapiens, UniProt P25774); experiment: Cathepsin S assay (fluorogenic substrate Z-Phe-Arg-AMC); format: biochemical; conditions: 50 µM inhibitor, 60 min; 100% = no inhibitor; n.i. = residual activity ≥ 95%; read-out: Percentage residual activity of human cathepsin S
T4 construct: purchased Enzo Life Sciences
Procedure: as §1
Human recombinant cathepsin S (Enzo Life Sciences) was assayed fluorometrically (FLUOstar Optima plate reader, BMG Labtech) at 25 °C with an emission wavelength of 360 nm and an absorption wavelength of 460 nm. The assay buffer was 100 mM sodium phosphate buffer pH 6.0, 100 mM NaCl, 5 mM EDTA, 0.01% Brij 35. For activation, an enzyme stock solution was diluted with assay buffer containing 5 mM DTT and incubated for 60 min at 37 °C.
as §3

T2 sequence (P07711 114-333): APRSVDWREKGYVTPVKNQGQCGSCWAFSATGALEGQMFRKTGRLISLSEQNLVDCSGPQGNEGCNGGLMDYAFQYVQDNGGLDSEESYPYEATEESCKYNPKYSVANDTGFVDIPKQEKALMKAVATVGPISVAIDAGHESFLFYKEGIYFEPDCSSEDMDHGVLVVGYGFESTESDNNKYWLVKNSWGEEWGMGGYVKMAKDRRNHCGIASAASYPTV
T4 sequence (P25774 115-331): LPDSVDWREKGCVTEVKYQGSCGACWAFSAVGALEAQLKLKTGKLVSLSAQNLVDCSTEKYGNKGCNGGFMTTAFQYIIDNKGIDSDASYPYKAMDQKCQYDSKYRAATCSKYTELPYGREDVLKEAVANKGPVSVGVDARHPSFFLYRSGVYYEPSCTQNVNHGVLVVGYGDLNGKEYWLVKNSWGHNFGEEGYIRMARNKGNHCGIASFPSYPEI

| Compound | remaining activity at 50 µM [1] [%] | Calcium Channel Blockade (%) [2] [%] | ORAC [3] | EC50 (Nrf2-ARE) [µM] | remaining activity at 50 µM [4] [%] | remaining activity at 50 µM [5] [%] | remaining activity at 50 µM [6] [%] |
| --- | --- | --- | --- | --- | --- | --- | --- |
| C#CCN(C)C(=O)C1=C(C)NC(C)=C(C(=O)N(C)CC#C)C1c1ccccc1OC [4k, 4-(2-Methoxyphenyl)-N2,N3,5,6-tetramethyl-N3,N5-bis(prop-2-yn-1-yl)-1,4-dihydropyridine-3,5-dicarboxamide] | 86 | 14 | n.i. | 69.4 ± 9.1 | 92 | 82 | 79 |
| C#CCN(C)C(=O)C1=C(C)NC(C)=C(C(=O)N(C)CC#C)C1c1cccc(OC)c1 [4l, 4-(3-Methoxyphenyl)-N2,N3,5,6-tetramethyl-N3,N5-bis(prop-2-yn-1-yl)-1,4-dihydropyridine-3,5-dicarboxamide] | 86 | 15 | 0.96 ± 0.07 Trolox equivalents | 81.7 ± 11.6 | 88 | 81 | 79 |
